Like-named read-outs stand apart in the source and are kept apart here.
How the values were obtained:
[1] = test system: Pseudomonas aeruginosa Xen5; experiment: Biophotonic monitoring of catheter-associated UTI with bioluminescent P. aeruginosa Xen5 in CF-1 female mice; format: in vivo
Procedure: (§1) Catheter-associated UTI with Pseudomonas aeruginosa Xen5 (10^6 CFU/catheter) in CF-1 female mice was established as described by Kadurugamuwa et al. (2005) Infection and Immunity 73(7):3878-87). Gallium maltolate (GaM) was assessed for efficacy against urinary tract infection (UTI) by P. aeruginosa, alone or in combination with ciprofloxacin (cipro) using bioluminescent engineered P. aeruginosa Xen5 in a CF-1 female mice UTI model that allows real time monitoring of infection with the Xenogen IVIS® Imaging System.
(§2) Catheter-associated UTI with P. aeruginosa (10^6 colony forming units (CFU)/catheter) were established in mice and treated 2 days after infection for 4 consecutive days with GaM alone; or cipro alone; or the combination of GaM and cipro. A second cycle of treatment was started on days 9-11 and the study terminated on day 21. Controls included saline-treated uninfected and infected animals.
Ciprofloxacin US Pharmacopeia, Rockville, Md.) and gallium maltolate were administered by oral gavage. Ciprofloxacin was given in 0.2 mL of water and gallium maltolate in 0.2 mL water containing 1% carboxylmethyl cellulose. A second group of animals served as an untreated infection control group by being implanted with infected catheters and treated with saline. In another control group, animals were implanted with sterile catheters and served as a negative control.
Therapeutic agents were readministered for 3 consecutive days, after 4 days of cessation of the initial 4-day therapy.

P. aeruginosa Xen 5 = format: in vivo, Pseudomonas aeruginosa
Procedure: as §1, §2

P. aeruginosa Xen5 = format: in vivo, Pseudomonas aeruginosa
Procedure: as §1, §2

[2] = Pharmacokinetics of serum gallium (ICP-MS) after oral gallium maltolate in female CF-1 mice; format: in vivo; details: 30 and 300 mg/kg oral gavage q.d. for 4 days
Procedure: Adult, female CF-1 mice (initial weight range 32-39 gram) were treated with 30 and 300 mg/kg gallium maltolate by oral gavage q.d. for 4 consecutive days. Both doses were administered in the same volume of drug solution, i.e., 480 μL of 2.5 and 25 mg/mL gallium maltolate in 1% carboxyl methylcellulose. Blood was drawn at the following time points after the final dose administration: 0, 0.5, 1 3, 6, 9, 12, 24, 33 and 48 hours. Blood drawn at time point ‘0’ was taken immediately after dosing. Blood samples were collected within ±5% of the scheduled time point. Whole blood (500 to 1000 μL) was drawn from a single mouse by cardiac puncture, and four mice were sacrificed per time point for each dosing group. After blood collection, the specimens were held at room temperature to allow for clot formation followed by centrifugation to obtain serum. The concentration of gallium in 100 μL serum was determined by Inductively Coupled Plasma—Mass Spectrometry (ICP-MS).
After a weighted linear regression analysis calibration curve had been established and validated by quality control analysis, serum gallium concentrations in the samples were measured and the results plotted.

[3] = 7 days after infection, ciprofloxacin 30 mg/kg b.i.d. oral
[4] = 11 days after infection, ciprofloxacin 30 mg/kg b.i.d. oral
[5] = 14 days after infection, ciprofloxacin 30 mg/kg b.i.d. oral
[6] = 16 days after infection, ciprofloxacin 30 mg/kg b.i.d. oral
[7] = 17 days after infection, ciprofloxacin 30 mg/kg b.i.d. oral
[8] = 21 days after infection, ciprofloxacin 30 mg/kg b.i.d. oral
[9] = ciprofloxacin 30 mg/kg b.i.d. oral
[10] = 7 days after infection, gallium maltolate 300 mg/kg q.d. oral
[11] = 11 days after infection, gallium maltolate 30 mg/kg q.d. oral
[12] = 11 days after infection, gallium maltolate 100 mg/kg q.d. oral
[13] = 11 days after infection, gallium maltolate 300 mg/kg q.d. oral
[14] = 14 days after infection, gallium maltolate 300 mg/kg q.d. oral
[15] = 16 days after infection, gallium maltolate 30 mg/kg q.d. oral
[16] = 16 days after infection, gallium maltolate 100 mg/kg q.d. oral
[17] = 16 days after infection, gallium maltolate 300 mg/kg q.d. oral
[18] = 17 days after infection, gallium maltolate 30 mg/kg q.d. oral
[19] = 17 days after infection, gallium maltolate 100 mg/kg q.d. oral
[20] = 17 days after infection, gallium maltolate 300 mg/kg q.d. oral
[21] = 21 days after infection, gallium maltolate 30 mg/kg q.d. oral
[22] = 21 days after infection, gallium maltolate 100 mg/kg q.d. oral
[23] = 21 days after infection, gallium maltolate 300 mg/kg q.d. oral
[24] = gallium maltolate 30 mg/kg q.d. oral
[25] = gallium maltolate 100 mg/kg q.d. oral
[26] = gallium maltolate 300 mg/kg q.d. oral

O=C(O)c1cn(C2CC2)c2cc(N3CCNCC3)c(F)cc2c1=O [Ciprofloxacin, reference compound]
Percent bacterial growth in animals compared to untreated control ([1]; Day 2, ciprofloxacin 30 mg/kg b.i.d. oral): 100% | Percent bacterial growth in animals compared to untreated control ([1]; Day 5, ciprofloxacin 30 mg/kg b.i.d. oral): 3% | Percent bacterial growth in animals compared to untreated control ([1]; Day 8, ciprofloxacin 30 mg/kg b.i.d. oral): 9% | Percent bacterial growth in animals compared to untreated control ([1]; Day 10, ciprofloxacin 30 mg/kg b.i.d. oral): 2% | Percent bacterial growth in animals compared to untreated control ([1]; Day 15, ciprofloxacin 30 mg/kg b.i.d. oral): 138% | Percent bacterial growth in animals compared to untreated control ([1]; Day 21, ciprofloxacin 30 mg/kg b.i.d. oral): 272% | Bioluminescent signal after discontinuing first ciprofloxacin treatment ([1]; approximately two days after discontinuing the initial 4-day therapy): reestablishment of the infection upon cessation of antibiotic therapy | Bioluminescent signal in the bladder compared to untreated control ([1]; ciprofloxacin 30 mg/kg b.i.d., after four days of treatments): rapid decline in bioluminescent signal to almost nearly to undetectable levels | Bioluminescence signal on re-administration of antibiotic ([1]; re-administration for three consecutive days): repeat decline in the bioluminescence signal | Infection after discontinuation of second bout of ciprofloxacin treatment ([1]; soon after discontinuation of second treatment cycle): infection re-established once again and approximately reached untreated levels | Bacterial counts in urine, Geometric Mean (P. aeruginosa Xen 5; [3]): 3.3 × 10^3 CFU/ml | Range of bacterial counts in urine (P. aeruginosa Xen 5; [3]): 2.0 × 10^2-7.0 × 10^5 CFU/ml | Bacterial counts in urine, Geometric Mean (P. aeruginosa Xen 5; [4]): 2.0 × 10^2 CFU/ml | Range of bacterial counts in urine (P. aeruginosa Xen 5; [4]): 2.0 × 10^2 CFU/ml | Bacterial counts in urine, Geometric Mean (P. aeruginosa Xen 5; [5]): 1.1 × 10^5 CFU/ml | Range of bacterial counts in urine (P. aeruginosa Xen 5; [5]): 2.0 × 10^2-1.2 × 10^7 CFU/ml | Bacterial counts in urine, Geometric Mean (P. aeruginosa Xen 5; [6]): 3.2 × 10^4 CFU/ml | Range of bacterial counts in urine (P. aeruginosa Xen 5; [6]): 2.0 × 10^2-6.0 × 10^5 CFU/ml | Bacterial counts in urine, Geometric Mean (P. aeruginosa Xen 5; [7]): 1.2 × 10^5 CFU/ml | Range of bacterial counts in urine (P. aeruginosa Xen 5; [7]): 2.0 × 10^2-8.0 × 10^6 CFU/ml | Bacterial counts in urine, Geometric Mean (P. aeruginosa Xen 5; [8]): 2.2 × 10^5 CFU/ml | Range of bacterial counts in urine (P. aeruginosa Xen 5; [8]): 2.0 × 10^2-3.6 × 10^7 CFU/ml | % Mortality (P. aeruginosa Xen5; [9]): 12.5% | No. of animals with a kidney signal at day 21/Total no. of animals (P. aeruginosa Xen5; [9]): 1/7

Cc1occc(=O)c1[O-].Cc1occc(=O)c1[O-].Cc1occc(=O)c1[O-].[Ga+3] [Gallium maltolate, gallium maltolate]
Percent bacterial growth in animals compared to untreated control ([1]; Day 2, gallium maltolate 30 mg/kg q.d. oral): 100% | Percent bacterial growth in animals compared to untreated control ([1]; Day 2, gallium maltolate 100 mg/kg q.d. oral): 100% | Percent bacterial growth in animals compared to untreated control ([1]; Day 2, gallium maltolate 300 mg/kg q.d. oral): 100% | Percent bacterial growth in animals compared to untreated control ([1]; Day 5, gallium maltolate 30 mg/kg q.d. oral): 60% | Percent bacterial growth in animals compared to untreated control ([1]; Day 5, gallium maltolate 100 mg/kg q.d. oral): 33% | Percent bacterial growth in animals compared to untreated control ([1]; Day 5, gallium maltolate 300 mg/kg q.d. oral): 19% | Percent bacterial growth in animals compared to untreated control ([1]; Day 8, gallium maltolate 30 mg/kg q.d. oral): 10% | Percent bacterial growth in animals compared to untreated control ([1]; Day 8, gallium maltolate 100 mg/kg q.d. oral): 12% | Percent bacterial growth in animals compared to untreated control ([1]; Day 8, gallium maltolate 300 mg/kg q.d. oral): 7% | Percent bacterial growth in animals compared to untreated control ([1]; Day 10, gallium maltolate 30 mg/kg q.d. oral): 13% | Percent bacterial growth in animals compared to untreated control ([1]; Day 10, gallium maltolate 100 mg/kg q.d. oral): 2% | Percent bacterial growth in animals compared to untreated control ([1]; Day 10, gallium maltolate 300 mg/kg q.d. oral): 4% | Percent bacterial growth in animals compared to untreated control ([1]; Day 15, gallium maltolate 30 mg/kg q.d. oral): 54% | Percent bacterial growth in animals compared to untreated control ([1]; Day 15, gallium maltolate 100 mg/kg q.d. oral): 11% | Percent bacterial growth in animals compared to untreated control ([1]; Day 15, gallium maltolate 300 mg/kg q.d. oral): 20% | Percent bacterial growth in animals compared to untreated control ([1]; Day 21, gallium maltolate 30 mg/kg q.d. oral): 22% | Percent bacterial growth in animals compared to untreated control ([1]; Day 21, gallium maltolate 100 mg/kg q.d. oral): 1% | Percent bacterial growth in animals compared to untreated control ([1]; Day 21, gallium maltolate 300 mg/kg q.d. oral): 8% | Recurrence of infection after termination of administration ([1]; gallium maltolate 300 mg/kg): recurrence of high levels of infection did not occur | Bioluminescence signal level ([1]; gallium maltolate 300 mg/kg, remained until termination on day 21): approximately 10^5 photons/catheter | Antibacterial growth activity compared to untreated control ([1]; gallium maltolate 30 and 100 mg/kg): showed antibacterial growth activity | Bacterial counts in urine, Geometric Mean (P. aeruginosa Xen 5; [10]): 3.0 × 10^5 CFU/ml | Range of bacterial counts in urine (P. aeruginosa Xen 5; [10]): 1.3 × 10^5-1.5 × 10^6 CFU/ml | Bacterial counts in urine, Geometric Mean (P. aeruginosa Xen 5; [11]): 1.5 × 10^5 CFU/ml | Range of bacterial counts in urine (P. aeruginosa Xen 5; [11]): 1.2 × 10^5-1.8 × 10^5 CFU/ml | Bacterial counts in urine, Geometric Mean (P. aeruginosa Xen 5; [12]): 4.6 × 10^4 CFU/ml | Range of bacterial counts in urine (P. aeruginosa Xen 5; [12]): 2.0 × 10^2-6.0 × 10^6 CFU/ml | Bacterial counts in urine, Geometric Mean (P. aeruginosa Xen 5; [13]): 1.1 × 10^5 CFU/ml | Range of bacterial counts in urine (P. aeruginosa Xen 5; [13]): 2.2 × 10^4-6.2 × 10^5 CFU/ml | Bacterial counts in urine, Geometric Mean (P. aeruginosa Xen 5; [14]): 2.3 × 10^5 CFU/ml | Range of bacterial counts in urine (P. aeruginosa Xen 5; [14]): 1.2 × 10^5-6.0 × 10^5 CFU/ml | Bacterial counts in urine, Geometric Mean (P. aeruginosa Xen 5; [15]): 2.4 × 10^5 CFU/ml | Range of bacterial counts in urine (P. aeruginosa Xen 5; [15]): 1.2 × 10^5-6.0 × 10^5 CFU/ml | Bacterial counts in urine, Geometric Mean (P. aeruginosa Xen 5; [16]): 1.1 × 10^4 CFU/ml | Range of bacterial counts in urine (P. aeruginosa Xen 5; [16]): 2.0 × 10^2-3.0 × 10^6 CFU/ml | Bacterial counts in urine, Geometric Mean (P. aeruginosa Xen 5; [17]): 5.8 × 10^5 CFU/ml | Range of bacterial counts in urine (P. aeruginosa Xen 5; [17]): 3.2 × 10^5-8 × 10^5 CFU/ml | Bacterial counts in urine, Geometric Mean (P. aeruginosa Xen 5; [18]): 1.6 × 10^5 CFU/ml | Range of bacterial counts in urine (P. aeruginosa Xen 5; [18]): 4.0 × 10^4-6.0 × 10^5 CFU/ml | Bacterial counts in urine, Geometric Mean (P. aeruginosa Xen 5; [19]): 2.9 × 10^4 CFU/ml | Range of bacterial counts in urine (P. aeruginosa Xen 5; [19]): 2.0 × 10^2-2.0 × 10^6 CFU/ml | Bacterial counts in urine, Geometric Mean (P. aeruginosa Xen 5; [20]): 3.2 × 10^5 CFU/ml | Range of bacterial counts in urine (P. aeruginosa Xen 5; [20]): 4.0 × 10^4-1.6 × 10^6 CFU/ml | Bacterial counts in urine, Geometric Mean (P. aeruginosa Xen 5; [21]): 1.6 × 10^5 CFU/ml | Range of bacterial counts in urine (P. aeruginosa Xen 5; [21]): 1.2 × 10^4-2.0 × 10^6 CFU/ml | Bacterial counts in urine, Geometric Mean (P. aeruginosa Xen 5; [22]): 8.2 × 10^3 CFU/ml | Range of bacterial counts in urine (P. aeruginosa Xen 5; [22]): 2.0 × 10^2-1.4 × 10^6 CFU/ml | Bacterial counts in urine, Geometric Mean (P. aeruginosa Xen 5; [23]): 3.1 × 10^5 CFU/ml | Range of bacterial counts in urine (P. aeruginosa Xen 5; [23]): 1.6 × 10^5-5.6 × 10^6 CFU/ml | Kidney infections at the termination of the study (P. aeruginosa Xen5; at all doses tested, day 21): free of kidney infections | % Mortality (P. aeruginosa Xen5; [24]): 25.0% | No. of animals with a kidney signal at day 21/Total no. of animals (P. aeruginosa Xen5; [24]): 0/3 | % Mortality (P. aeruginosa Xen5; [25]): 25.0% | No. of animals with a kidney signal at day 21/Total no. of animals (P. aeruginosa Xen5; [25]): 0/3 | % Mortality (P. aeruginosa Xen5; [26]): 0.0% | No. of animals with a kidney signal at day 21/Total no. of animals (P. aeruginosa Xen5; [26]): 0/4 | Initial half-life of elimination of serum gallium [2]: 8 to 12 h | Time of peak serum gallium concentration ([2]; after final dose): within half hour
